Earlier results on 1 compound are cited in article PMC3401542 (Bioorganic & medicinal chemistry, 2012).

In the data set the test system is N1 NAs. Conditions: read-out: inhibition (IC50) of N1 NAs; range over N1 NAs; ref [28]; cited from earlier work.

The structures appear in SMILES notation.

Turning to `CCC(CC)O[C@@H]1C=C(C(=O)O)C[C@H](N)[C@H]1NC(C)=O` [Compound 1c, oseltamivir carboxylate], the IC50 (usually the concentration at which inhibition is half-maximal) was 0.3 to 0.8 nM.
